Data: patent US7414068B2, “Benzopyran derivatives substituted with secondary amines including tetrazole, method for the preparation thereof and pharmaceutical compositions containing them” (Dongbu Hannong Chemical Co., Ltd., priority 2002, dated 2008)

Tested on: isolated rat aorta
Test: Vasodilating effect on blood vessel excised from rats (methoxamine-constricted aorta)
Conditions: isolated rat aorta constricted with methoxamine (3 μM); read-out: Concentration for inhibition of constriction induced by methoxamine in rat arota (IC50)
Procedure, shortened: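 Endothelium-denuded rat thoracic aortic rings (3 mm) in Krebs-Henseleit buffer, 37 °C, carbogen, 2 g resting tension, primed twice with 10^−5 M phenylephrine. After maximal contraction with 3×10^−6 M methoxamine, compounds added cumulatively at 1, 3, 10, 30 μM. IC50 = concentration giving 50% relaxation of maximal constriction, by linear regression.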

## COC(OC)[C@@]1(C)Oc2ccc(N)cc2[C@H](N(Cc2nnn(C)n2)c2ccc(Cl)cc2)[C@H]1O [Example 11, (2S,3R,4S)-6-amino-4-[N-(4-chlorophenyl)-N-(2-methyl-2H-tetrazol-5-ylmethyl)amino]-3-hydroxy-2-methyl-2-dimethoxymethyl-3,4-dihydro-2H-1-benzopyran]
  IC50: > 30 µM
